In US20260224537A1, “METHODS AND COMPOSITIONS FOR TREATING GLUCOCORTICOID-MEDIATED DISEASES” (SPARROW PHARMACEUTICALS, INC., priority 2023, published 2026):
Entries after “also recorded” stand apart in the source; their conditions may differ.

Tests used:
[1] = system: patients with polymyalgia rheumatica (PMR); experiment: Clinical trial in PMR: assessment of prednisolone toxicity (bone turnover, lipids, glycemic control, coagulation, ECG heart rate, HPA axis); format: in vivo, human
Procedure: (§1) In an ongoing clinical trial, patients with polymyalgia rheumatica (PMR), who receive prednisolone 10 mg daily for at least 7 days prior to Day 1, are in remission or have low disease activity, and who meet the inclusion and exclusion criteria (Table 1), enter a 4-week treatment period.
(§2) From Day 1 to Week 2, participants continue to receive prednisolone 10 mg and placebo for SPI-62, each daily. From Week 2 to Week 4, participants receive prednisolone, at a dose or randomized doses assigned per cohort, and SPI-62 6 mg, each daily. The order of treatments are not randomized due to the long pharmacological half-life of SPI-62, which is understood to be approximately 4-6 weeks based on data collected up to 2-2.5 weeks after cessation of SPI-62 administration in prior clinical trials. Participants are blinded to the order of treatments. Participants are enrolled in cohorts of approximately 12. • During Cohort 1, 12 participants received prednisolone 10 mg with SPI-62 6 mg. Two participants were erroneously dosed with SPI-62 on Day 1. […] Two participants' prednisolone dose was increased to 15 mg prior to Week 4 following adverse events of PMVR aggravated. Those two participants' data are represented in the Figures in the PRL15 CLO6 regimen. […] Those two participants' data are represented in the Figures only in the PRL10 regimen. • During Cohort 2, 12 participants received prednisolone 15 mg (50% dose adjustment) with SPI-62 6 mg. All also received prednisolone 10 mg with placebo for SPI-62. • During Cohort 3, 11 participants received prednisolone 20 mg (100% dose adjustment from Cohort 1) with clofutriben (i.e., SPI-62) 6 mg. All also received prednisolone 10 mg with placebo for SPI-62. […] That participant's data are represented in the Figures in the PRL10 and PRL10 CLO6 regimens. • During Cohort 4, 11 participants received prednisolone 30 mg (100% dose adjustment from Cohort 2) with clofutriben (i.e., SPI-62) 6 mg. • Two additional participants dropped out of the trial before they received clofutriben. Those participants' data are represented in the Figures in the PRL10 regimen.
FIGS. 1-26 compare the change from baseline during two weeks of treatment with 10 mg prednisolone and placebo (PRL 10), 10 mg prednisolone and 6 mg clofutriben (PRL10 CLO6), 15 mg prednisolone and 6 mg clofutriben (PRL15 CLO6), 20 mg prednisolone and 6 mg clofutriben (PRL20 CLO6), and 30 mg prednisolone and 6 mg clofutriben (PRL30 CLO6). The central horizontal line of each diamond represents the mean of the observed data. The top and bottom vertices represent the 95% confidence interval of the mean. The top and bottom ‘overlap lines’ would indicate statistically significant difference between groups under assumptions of normal data distribution, equal variances, and lack of covariance with baseline value. As one or more of those assumptions is violated for many of the datasets, statistical significance should not be inferred based on the overlap lines in FIGS. 1-26.
Assessment of prednisolone toxicity focused first on bone turnover biomarkers, which were expected to be the most sensitive based on published evidence of substantial changes within a few days of glucocorticoid administration that correlated with hepatic HSD-1 activity. SPI-62 was associated with changes consistent with an anti-GIOP phenotype, i.e., increases of the bone formation biomarkers OC and P1NP (FIG. 12), and decreases of the bone resorption biomarker CTX (FIG. 13).
Whether GC-associated HDL increase should be considered GC toxicity is not clear. […] About half of the participants (represented by colored circles) were on cholesterol-lowering agents, while no participants received any additional triglyceride lowering agents. The improvements in cholesterol were attributed mainly to a decrease in HDL, representing a reversal of the HDL-increasing effect of GC by clofutriben. […]

[2] = system: patients with polymyalgia rheumatica (PMR); experiment: Clinical trial in polymyalgia rheumatica: PMR disease control, adverse events of PMR aggravated and relapse (Criterion 1); format: in vivo, human; details: 2 weeks daily treatment
Procedure: as §1
(§3) From Day 1 to Week 2, participants continue to receive prednisolone 10 mg and placebo for SPI-62, each daily. From Week 2 to Week 4, participants receive prednisolone, at a dose or randomized doses assigned per cohort, and SPI-62 6 mg, each daily. The order of treatments are not randomized due to the long pharmacological half-life of SPI-62, which is understood to be approximately 4-6 weeks based on data collected up to 2-2.5 weeks after cessation of SPI-62 administration in prior clinical trials. Participants are blinded to the order of treatments. Participants are enrolled in cohorts of approximately 12. • During Cohort 1, 12 participants received prednisolone 10 mg with SPI-62 6 mg. Two participants were erroneously dosed with SPI-62 on Day 1. […] Two participants' prednisolone dose was increased to 15 mg prior to Week 4 following adverse events of PMVR aggravated. Those two participants' data are represented in the Figures in the PRL15 CLO6 regimen. […]

[3] = system: healthy adults; details: dexamethasone 3 mg, 5 days; cited from earlier work
[4] = system: patients with polymyalgia rheumatica (PMR); experiment: Clinical trial in PMR: acute phase markers CRP, ESR, fibrinogen; format: in vivo, human; details: change from baseline after 2 weeks daily treatment
Procedure: as §1
as §3, with “aggravated.” for “aggravated. Those two participants' data are represented in the Figures in the PRL15 CLO6 regimen.”
Criterion 2—Acute phase markers C-reactive protein (CRP) and erythrocyte sedimentation rate (ESR), which are standard parameters clinicians use to quantitate systemic inflammation in PMR. […]

[5] = system: patients with polymyalgia rheumatica (PMR); experiment: Clinical trial in PMR: 13-plex cytokine panel; format: in vivo, human; details: SPI-62 6 mg co-administered with prednisolone; 2 weeks
Procedure: as §1
From Day 1 to Week 2, participants continue to receive prednisolone 10 mg and placebo for SPI-62, each daily. From Week 2 to Week 4, participants receive prednisolone, at a dose or randomized doses assigned per cohort, and SPI-62 6 mg, each daily. The order of treatments are not randomized due to the long pharmacological half-life of SPI-62, which is understood to be approximately 4-6 weeks based on data collected up to 2-2.5 weeks after cessation of SPI-62 administration in prior clinical trials. Participants are blinded to the order of treatments. Participants are enrolled in cohorts of approximately 12. • During Cohort 1, 12 participants received prednisolone 10 mg with SPI-62 6 mg. Two participants were erroneously dosed with SPI-62 on Day 1. […] Two participants' prednisolone dose was increased to 15 mg prior to Week 4 following adverse events of PMVR aggravated. Those two participants' data are represented in the Figures in the PRL15 CLO6 regimen. […] Those two participants' data are represented in the Figures only in the PRL10 regimen. • During Cohort 2, 12 participants received prednisolone 15 mg (50% dose adjustment) with SPI-62 6 mg. All also received prednisolone 10 mg with placebo for SPI-62. • During Cohort 3, 11 participants received prednisolone 20 mg (100% dose adjustment from Cohort 1) with clofutriben (i.e., SPI-62) 6 mg. All also received prednisolone 10 mg with placebo for SPI-62. […] That participant's data are represented in the Figures in the PRL10 and PRL10 CLO6 regimens. • During Cohort 4, 11 participants received prednisolone 30 mg (100% dose adjustment from Cohort 2) with clofutriben (i.e., SPI-62) 6 mg. • Two additional participants dropped out of the trial before they received clofutriben. Those participants' data are represented in the Figures in the PRL10 regimen. […]

[6] = system: patients with diabetic peripheral neuropathy; details: SPI-62 without prednisolone, at 6 weeks, prior trials; cited from earlier work
[7] = Prior clinical trials of SPI-62 (without glucocorticoids); details: human, in vivo; based on data collected up to 2-2.5 weeks after cessation of SPI-62 administration in prior clinical trials; read-out: pharmacological half-life
Procedure: From Day 1 to Week 2, participants continue to receive prednisolone 10 mg and placebo for SPI-62, each daily. From Week 2 to Week 4, participants receive prednisolone, at a dose or randomized doses assigned per cohort, and SPI-62 6 mg, each daily. The order of treatments are not randomized due to the long pharmacological half-life of SPI-62, which is understood to be approximately 4-6 weeks based on data collected up to 2-2.5 weeks after cessation of SPI-62 administration in prior clinical trials. Participants are blinded to the order of treatments. Participants are enrolled in cohorts of approximately 12. • During Cohort 1, 12 participants received prednisolone 10 mg with SPI-62 6 mg. Two participants were erroneously dosed with SPI-62 on Day 1. […] Two participants' prednisolone dose was increased to 15 mg prior to Week 4 following adverse events of PMVR aggravated. Those two participants' data are represented in the Figures in the PRL15 CLO6 regimen. […] Those two participants' data are represented in the Figures only in the PRL10 regimen. • During Cohort 2, 12 participants received prednisolone 15 mg (50% dose adjustment) with SPI-62 6 mg. All also received prednisolone 10 mg with placebo for SPI-62. • During Cohort 3, 11 participants received prednisolone 20 mg (100% dose adjustment from Cohort 1) with clofutriben (i.e., SPI-62) 6 mg. […]

[8] = prior trials, participants did not receive GCs; cited from earlier work
[9] = target: T1, hepatic HSD-1 (Homo sapiens, UniProt P28845); experiment: Urinary ratio (tetrahydrocortisol+allotetrahydrocortisol)/tetrahydrocortisone, biomarker of hepatic HSD-1 activity; format: in vivo
T1 construct: confirm the pharmacological effect of SPI-62 on hepatic HSD-1 activity; from tissue; host or cells: liver (hepatocytes) of trial subjects, in vivo; read out through urinary steroid metabolites
T1 sequence (P28845 whole entry): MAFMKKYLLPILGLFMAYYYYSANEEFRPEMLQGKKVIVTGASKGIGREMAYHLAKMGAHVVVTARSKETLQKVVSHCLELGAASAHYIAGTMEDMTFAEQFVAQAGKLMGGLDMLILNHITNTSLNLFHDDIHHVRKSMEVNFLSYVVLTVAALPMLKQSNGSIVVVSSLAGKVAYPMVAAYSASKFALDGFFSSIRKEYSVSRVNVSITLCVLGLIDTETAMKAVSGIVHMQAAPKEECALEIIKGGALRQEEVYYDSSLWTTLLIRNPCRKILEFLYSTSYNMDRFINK
Procedure: Data from all cohorts were analyzed together to confirm the pharmacological effect of SPI-62 on hepatic HSD-1 activity. In hepatocytes, 5- and 3-steroid reductases, the latter a liver-specific enzyme, convert cortisol and cortisone to tetrahydro metabolites which are excreted in urine. The urinary ratio (tetrahydrocortisol+allotetrahydrocortisol)/tetrahydrocortisone is an accepted biomarker of hepatic HSD-1 activity. Morning spot urine samples were collected at Baseline (BL), after 2 weeks of prednisolone 10 mg treatment (PRL), after 2 weeks of prednisolone 10-30 mg+clofutriben 6 mg treatment (PRL CLO6), and after 4 weeks washout following the last clofutriben dose (WO). […] The similarity between BL and PBO is an example of the repeatability of the HSD-1 ratio in spot urine samples.

[10] = system: patients with polymyalgia rheumatica (PMR); experiment: Clinical trial in PMR: circulating cell counts (lymphoid lineages by quantitative PCR; monocytes, neutrophils, platelets); format: in vivo, human
Procedure: as §1, §2
FIGS. 1-26 compare the change from baseline during two weeks of treatment with 10 mg prednisolone and placebo (PRL 10), 10 mg prednisolone and 6 mg clofutriben (PRL10 CLO6), 15 mg prednisolone and 6 mg clofutriben (PRL15 CLO6), 20 mg prednisolone and 6 mg clofutriben (PRL20 CLO6), and 30 mg prednisolone and 6 mg clofutriben (PRL30 CLO6). The central horizontal line of each diamond represents the mean of the observed data. The top and bottom vertices represent the 95% confidence interval of the mean. […]
Counts of several circulating lymphoid cell types were determined by quantitative PCR for lineage-specific DNA methylation patterns. […]

[11] = PMR patients, change from baseline after 2 weeks daily treatment
[12] = co-administration with prednisolone at any prednisolone dose, 2 weeks
[13] = patients receiving prednisolone, relative to placebo

Compound: C[C@]12C=CC(=O)C=C1CC[C@@H]1[C@@H]2[C@@H](O)C[C@@]2(C)[C@H]1CC[C@]2(O)C(=O)CO [prednisolone, reference compound]
- HbA1c [1, 11]: decrease
- LDL cholesterol [1, 11]: encompassed zero
- cholesterol [1, 11]: encompassed zero
- triglycerides [1, 11]: encompassed zero
- incidence of adverse events of PMR aggravated ([2]; participants with event/participants): 0/50
- PMR relapse (increase of PMR symptoms or disease activity such that a prednisolone dose increase was indicated) ([2]; participants with relapse/participants): 0/50

Compound: C[C@@H]1C[C@H]2[C@@H]3CCC4=CC(=O)C=C[C@]4(C)[C@@]3(F)[C@@H](O)C[C@]2(C)[C@@]1(O)C(=O)CO [dexamethasone]
- ECG heart rate decrease [3]: approximately 12 bpm
- HDL cholesterol [3]: clinically meaningful increase
- LDL cholesterol [3]: not particularly sensitive
- triglycerides [3]: not particularly sensitive

Compound: Cn1c(-c2ccc(C(N)=O)cc2F)nnc1C(C)(C)Oc1c(F)cc(Cl)cc1F [SPI-62, 4-(5-(2-(4-chloro-2,6-difluorophenoxy)propan-2-yl)-4-methyl-4H-1,2,4-triazol-3-yl)-3-fluorobenzamide]
- fibrinogen (PF) level [4]: increased
- IL-1 receptor antagonist (IL-1RA) level [5]: did not show sensitivity to SPI-62
- granulocyte colony stimulating factor (G-CSF) level [5]: did not show sensitivity to SPI-62
- interferon gamma (IFNγ) level [5]: did not show sensitivity to SPI-62
- HbA1c [6]: clinically meaningful decrease
- half-life [7]: 28 to 42 days
- effect on ECG heart rate [8]: No effect
- hepatic HSD-1 inhibition after washout ([9]; 4 weeks after the last dose of SPI-62): Substantial hepatic HSD-1 inhibition
- hepatic HSD-1 inhibition ([9]; after 2 weeks of prednisolone 10-30 mg + clofutriben 6 mg): full hepatic HSD-1 inhibition
- urinary ratio (tetrahydrocortisol+allotetrahydrocortisol)/tetrahydrocortisone, mean value ([9]; morning spot urine after 2 weeks of prednisolone 10-30 mg + clofutriben 6 mg): ≤ 0.2
- HOMA-IR [1, 11]: not sensitive
- HbA1c [1, 11]: not sensitive; also recorded: close to zero
- activated partial thromboplastin time (APTT) [1, 11]: improve
- bone formation biomarker BSAP [1, 11]: low sensitivity
- bone formation biomarker P1NP [1, 11]: increases
- bone formation biomarker osteocalcin (OC) [1, 11]: increases
- bone resorption biomarker CTX [1, 11]: decreases
- morning serum cortisol ([1]; PMR patients, change from baseline after 2 weeks daily treatment, compared to placebo): increase
- Prothrombin International Normalized Ratio (INR) [1, 12]: not observed to be sensitive
- Prothrombin Time (PT) [1, 12]: not observed to be sensitive
- plasma ACTH ([1]; patients receiving prednisolone, clofutriben compared to placebo): increase
- DHEA-S [1, 13]: increase, within or close to the reference range
- testosterone [1, 13]: increase, within or close to the reference range
- hypothalamic-pituitary-adrenal (HPA) axis ([1]; patients that received prednisolone): de-repression
- monocyte count [10, 11]: anticipated increases
- neutrophil count [10, 11]: anticipated increases
- platelet count [10, 11]: anticipated increases
- counts of circulating lymphoid cell types (B, IL-6R+, memory B, CD3+T, Th17, Treg) ([10]; SPI-62 6 mg co-administered with prednisolone, 2 weeks): decreases of all counted lineages, which were not fully ameliorated by prednisolone dose adjustment
